Data: patent publication US8383785B2, “Anti-bacterial activity of 9-hydroxy derivatives of 6,11-bicyclolides” (Enanta Pharmaceuticals, Inc., priority 2008, dated 2013)

What was measured:
[1] = system: H. influenzae strain 49247; experiment: MIC by micro-dilution method, H. influenzae strain 49247; type: cell-based, Haemophilus influenzae; details: compounds of the invention (scaffold drawing 61, 9-hydroxy); 24 hours, 35+/-2° C.
Procedure: (§1) Susceptibility tests can be used to quantitatively measure the in vitro activity of an antimicrobial agent against a given bacterial isolate. Compounds are tested for in vitro antibacterial activity by a micro-dilution method. Minimal Inhibitory Concentration (MIC) is determined in 96 well microtiter plates utilizing the appropriate broth medium for the observed bacterial isolates. Antimicrobial agents are serially diluted (2-fold) in DMSO to produce a concentration range from about 64 μg/ml to about 0.03 μg/ml. The diluted compounds (2 μl/well) are then transferred into sterile, uninoculated medium (0.2 mL) by use of a 96 fixed tip-pipetting station. The inoculum for each bacterial strain is standardized to approximately 5×10^5 CFU/mL by optical comparison to a 0.5 McFarland turbidity standard. The plates are inoculated with 10 μl/well of adjusted bacterial inoculum. The 96 well plates are covered and incubated at 35+/−2° C. for 24 hours in ambient air environment. Following incubation, plate wells are visually examined by Optical Density measurement for the presence of growth (turbidity). The lowest concentration of an antimicrobial agent at which no visible growth occurs is defined as the MIC.
(§2) All in vitro testing follows the guidelines described in the Approved Standards M7-A7 protocol, published by the Clinical Laboratory Standards Institute (CLSI).
(§3) Table II below provides MIC data for compounds of the invention and related species from U.S. Pat. No. 6,878,691 and US Published Application No. 2009/0118506, each of which is incorporated herein by reference. The values in the table are minimum inhibition concentration (MIC) and are expressed as ug/mL.

[2] = system: H. influenzae strain 33929; experiment: MIC by micro-dilution method, H. influenzae strain 33929; type: cell-based, Haemophilus influenzae; details: compounds of the invention (scaffold drawing 61, 9-hydroxy); 24 hours, 35+/-2° C.
Procedure: as §1, §2, §3

H. influenzae MIC strain 49247 [1] [µg/mL] | H. influenzae MIC strain 33929 [2] [µg/mL] | SMILES
4 | 4 | CCC1OC(=O)C(C)(F)C(=O)C(C)C(OC2OC(C)CC(N(C)C)C2O)C2(C)CC(C)C(O)C(C)C(OCC(=NOCc3ccc(-c4nc(N)cs4)cc3)CO2)C1(C)O (mixture of isomers) [Compound 15]
1 | 1 | CCC1OC(=O)C(C)(F)C(=O)C(C)C(OC2OC(C)CC(N(C)C)C2O)C2(C)CC(C)C(O)C(C)C(OCC(=NOCc3csc(-c4cccc(N)n4)n3)CO2)C1(C)O (mixture of isomers) [Compound 17]
1 | 2 | CCC1OC(=O)C(C)(F)C(=O)C(C)C(OC2OC(C)CC(N(C)C)C2O)C2(C)CC(C)C(O)C(C)C(OCC(=NOCc3ccc(-c4nc(N)cs4)nc3)CO2)C1(C)O (mixture of isomers) [Compound 18]
1 | 2 | CCC1OC(=O)C(C)(F)C(=O)C(C)C(OC2OC(C)CC(N(C)C)C2O)C2(C)CC(C)C(O)C(C)C(OCC(=NOCc3coc(-c4cccc(N)n4)n3)CO2)C1(C)O (mixture of isomers) [Compound 14]
1 | 2 | CC[C@H]1OC(=O)[C@@](C)(F)C(=O)[C@H](C)[C@@H](O[C@@H]2O[C@H](C)C[C@H](N(C)C)[C@H]2O)[C@@]2(C)C[C@@H](C)[C@H](O)[C@H](C)C(OCC(=NOCc3cnc(-c4cccc(N)n4)s3)CO2)[C@]1(C)O [Compound 12]
1 | 2 | CCC1OC(=O)C(C)(F)C(=O)C(C)C(OC2OC(C)CC(N(C)C)C2O)C2(C)CC(C)C(O)C(C)C(OCC(=NOCc3ccc(-c4ccno4)nc3)CO2)C1(C)O (mixture of isomers) [Compound 13]

Continued, molecule first:

SMILES | H. influenzae MIC strain 49247 [1] [µg/mL] | H. influenzae MIC strain 33929 [2] [µg/mL]
CC[C@H]1OC(=O)[C@H](C)C(=O)[C@H](C)[C@@H](O[C@@H]2O[C@H](C)C[C@H](N(C)C)[C@H]2O)[C@@]2(C)C[C@@H](C)[C@H](O)[C@H](C)C(OCC(=NOCc3ncc(-c4cccc(N)n4)s3)CO2)[C@]1(C)O [Compound 8] | 1 | 2
CC[C@H]1OC(=O)[C@H](C)C(=O)[C@H](C)[C@@H](O[C@@H]2O[C@H](C)C[C@H](N(C)C)[C@H]2O)[C@@]2(C)C[C@@H](C)[C@H](O)[C@H](C)C(OCC(=NOCc3cccc(-c4cccc(N)n4)n3)CO2)[C@]1(C)O [Compound 6] | 1 | 1
CC[C@H]1OC(=O)[C@@](C)(F)C(=O)[C@H](C)[C@@H](O[C@@H]2O[C@H](C)C[C@H](N(C)C)[C@H]2O)[C@@]2(C)C[C@@H](C)[C@H](O)[C@H](C)C(OCC(=NOCc3ncc(-c4cccc(N)n4)s3)CO2)[C@]1(C)O [Compound 11] | 1 | 1
CC[C@H]1OC(=O)[C@H](C)C(=O)[C@H](C)[C@@H](O[C@@H]2O[C@H](C)C[C@H](N(C)C)[C@H]2O)[C@@]2(C)C[C@@H](C)[C@H](O)[C@H](C)C(OCC(=NOCc3ccc(-n4ccc(N)n4)cn3)CO2)[C@]1(C)O [Compound 5] | 2 | 2
CC[C@H]1OC(=O)[C@H](C)C(=O)[C@H](C)[C@@H](O[C@@H]2O[C@H](C)C[C@H](N(C)C)[C@H]2O)[C@@]2(C)C[C@@H](C)[C@H](O)[C@H](C)C(OCC(=NOCc3csc(-c4cccc(N)n4)n3)CO2)[C@]1(C)O [Compound 9] | 1 | 1
CC[C@H]1OC(=O)[C@H](C)C(=O)[C@H](C)[C@@H](O[C@@H]2O[C@H](C)C[C@H](N(C)C)[C@H]2O)[C@@]2(C)C[C@@H](C)[C@H](O)[C@H](C)C(OCC(=NOCc3ccc(-c4nc(N)ns4)cn3)CO2)[C@]1(C)O [Compound 2] | 1 | 1
CC[C@H]1OC(=O)[C@H](C)C(=O)[C@H](C)[C@@H](O[C@@H]2O[C@H](C)C[C@H](N(C)C)[C@H]2O)[C@@]2(C)C[C@@H](C)[C@H](O)[C@H](C)C(OCC(=NOCc3ccc(-c4nc(N)cs4)cn3)CO2)[C@]1(C)O [Compound 3] | 2 | 4
CC[C@H]1OC(=O)[C@H](C)C(=O)[C@H](C)[C@@H](O[C@@H]2O[C@H](C)C[C@H](N(C)C)[C@H]2O)[C@@]2(C)C[C@@H](C)[C@H](O)[C@H](C)C(OCC(=NOCc3ccc(-c4ccno4)nc3)CO2)[C@]1(C)O [Compound 4] | 1 | 1
CCC1OC(=O)C(C)(F)C(=O)C(C)C(OC2OC(C)CC(N(C)C)C2O)C2(C)CC(C)C(O)C(C)C(OCC(=NOCc3ccc(-c4nccs4)cn3)CO2)C1(C)O (mixture of isomers) [Compound 16] | – | 2
CC[C@H]1OC(=O)[C@@](C)(F)C(=O)[C@H](C)[C@@H](O[C@@H]2O[C@H](C)C[C@H](N(C)C)[C@H]2O)[C@@]2(C)C[C@@H](C)[C@H](O)[C@H](C)C(OCC(=NOCc3ccc(-c4nc(N)cs4)cn3)CO2)[C@]1(C)O [Compound 10] | 1 | 4
CC[C@H]1OC(=O)[C@H](C)C(=O)[C@H](C)[C@@H](O[C@@H]2O[C@H](C)C[C@H](N(C)C)[C@H]2O)[C@@]2(C)C[C@@H](C)[C@H](O)[C@H](C)C(OCC(=NOCc3ccc(-n4ccc(N)n4)nc3)CO2)[C@]1(C)O [Compound 7] | 1 | 1
